These results are taken from patent publication US4888333A, “Allymercaptoacetylsydnonimines, processes for their preparation, and their use” (Cassella Aktiengessellschaft, priority 1987, dated 1989).

Structures are written as SMILES.

The subject of one experiment is pulmonary artery of the guinea pig. The experiment in a line: Relaxant effect: inhibition of CaCl2-triggered contraction of potassium-depolarized spiral strips of the pulmonary artery. In kind it is cell-based. Particulars: Cavia porcellus, calcium-free Tyrode's solution, 40 mmol/l potassium, 0.5 mmol/l CaCl2, mean of 4 to 6 vessel strips, read-out: IC50 (concentration of the test substance which inhibits contraction by 50%). The text has this:
The pharmacological action of the compounds of the formula I was established using a modification of the method of Godfraind and Kaba (Arch. Int. Pharmacodyn. Ther. 196, (Suppl) 35 to 49, 1972) and of Schumann et al. (Naunyn-Schmiedeberg's Arch. Pharmacol. 289, 409 to 481, 1975). This entails spiral strips of the pulmonary artery of the guinea pig being equilibrated in calcium-free Tyrode's solution and then depolarized with 40 mmol/l of potassium. Addition of 0.5 mmol/l of CaCl2 then triggers a contraction. The relaxant effect of the test substance is established by cumulative addition of concentrations in 1/2 log 10 steps. The concentration of the test substance which inhibits contraction by 50% (=IC50, mol/l) is established from the concentration/effect graph (abscissa: -log mol/l test substance, ordinate: % inhibition of the maximum contraction, mean of 4 to 6 vessel strips).
As to `C=CCSCC(=O)[N-]c1c[n+](N2CCOCC2)no1` [Example 1, 3-Morpholino-N-allylmercaptoacetylsydononimine], the IC50 is 20 µM.

Turning to `C=CCSCC(=O)[N-]c1c[n+](N2CCN(C(=O)OCC)CC2)no1` [Example 2, 3-(4-Ethoxycarbonyl-1-piperazinyl)-N-allylmercaptoacetylsydnonimine], the IC50 was 80 µM. Still for that read-out and setting: the figure for `C=CCSCC(=O)[N-]c1c[n+](N2CCN(S(C)(=O)=O)CC2)no1` [Example 3, 3-(4-Methylsulphonyl-1-piperazinyl)-N-allylmercaptoacetylsydnonimine] is 30 µM; for `C=CCSCC(=O)[N-]c1c[n+](N2CCN(S(=O)(=O)N(C)C)CC2)no1` [Example 4, 3-(4-Dimethylaminosulphonyl-1-piperazinyl)-N-allylmercaptoacetylsydnonimine] it is 30 µM; for `C=CCSCC(=O)[N-]c1c[n+](N2CCS(=O)(=O)CC2)no1` [Example 5, 3-(1,1-Dioxotetrahydro-1,4-thiazin-4-yl)-N-allylmercaptoacetylsydnonimine] it is 30 µM. On the same count and under the same terms, as for `C=CCSCC(=O)[N-]c1c[n+](N(C)C2CCS(=O)(=O)C2)no1` (stereo not shown) [Example 6, 3-(N-Methyl-N-1,1-dioxotetrahydro-3-thienylamino)-N-allylmercaptoacetylsydnonimine], the figure is 10 µM. Still for that read-out and setting: the figure for `C=CCSCC(=O)[N-]c1c[n+](N(C)C)no1` [Example 7, 3-Dimethylamino-N-allylmercaptoacetylsydnonimine] is 30 µM; for `C=CCSCC(=O)[N-]c1c[n+](N2CCCCC2)no1` [Example 8, 3-Piperidino-N-allylmercaptoacetylsydnonimine] it is 20 µM. With `CCOC(=O)[N-]c1cn(N2CCOCC2)n[o+]1` [Molsidomine, N-ethoxycarbonyl-3-morpholinosydnonimine, reference compound], the IC50 was determined as 100 µM.

The same experiment, now with this note: calcium-free Tyrode's solution, 40 mmol/l potassium, 0.5 mmol/l CaCl2, mean of 4 to 6 vessel strips, read-out: IC50 (concentration of the test substance which inhibits contraction by 50%).
Regarding `CCOC(=O)[N-]c1cn(N2CCOCC2)n[o+]1` [Molsidomine, N-ethoxycarbonyl-3-morpholinosydnonimine, reference compound], the IC50 is over 100 µM.
